# Target: focal adhesion kinase (FAK) (Homo sapiens, UniProt Q05397)
# Experiment: FAK kinase inhibition assay
# Assay type: biochemical
# Chain of focal adhesion kinase (FAK) (Q05397 2-1052): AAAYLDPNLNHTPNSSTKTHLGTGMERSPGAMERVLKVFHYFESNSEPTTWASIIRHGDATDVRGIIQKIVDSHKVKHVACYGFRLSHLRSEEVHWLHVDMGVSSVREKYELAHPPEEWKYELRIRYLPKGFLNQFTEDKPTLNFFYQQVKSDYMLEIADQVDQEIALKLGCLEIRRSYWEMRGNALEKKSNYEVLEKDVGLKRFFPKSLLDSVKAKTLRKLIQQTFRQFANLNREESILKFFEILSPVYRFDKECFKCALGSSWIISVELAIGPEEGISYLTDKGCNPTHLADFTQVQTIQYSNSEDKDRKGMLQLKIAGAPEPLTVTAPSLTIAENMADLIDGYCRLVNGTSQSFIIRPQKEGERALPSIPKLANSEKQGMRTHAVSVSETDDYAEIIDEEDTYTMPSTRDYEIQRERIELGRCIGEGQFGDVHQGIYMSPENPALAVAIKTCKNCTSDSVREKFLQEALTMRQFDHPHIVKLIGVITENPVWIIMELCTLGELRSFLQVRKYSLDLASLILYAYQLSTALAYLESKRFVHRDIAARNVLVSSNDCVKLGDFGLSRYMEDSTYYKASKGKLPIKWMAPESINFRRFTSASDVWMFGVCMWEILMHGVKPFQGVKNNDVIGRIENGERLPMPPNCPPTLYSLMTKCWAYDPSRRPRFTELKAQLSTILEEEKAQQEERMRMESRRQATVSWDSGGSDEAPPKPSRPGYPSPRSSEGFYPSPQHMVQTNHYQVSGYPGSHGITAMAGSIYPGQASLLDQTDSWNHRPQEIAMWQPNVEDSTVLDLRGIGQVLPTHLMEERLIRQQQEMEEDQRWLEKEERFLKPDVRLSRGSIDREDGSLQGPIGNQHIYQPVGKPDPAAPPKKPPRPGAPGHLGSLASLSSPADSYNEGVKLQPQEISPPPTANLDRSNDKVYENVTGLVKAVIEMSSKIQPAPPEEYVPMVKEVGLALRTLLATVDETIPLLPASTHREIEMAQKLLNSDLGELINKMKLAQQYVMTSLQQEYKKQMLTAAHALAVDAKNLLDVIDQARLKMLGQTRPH
smiles,measurement,value
CONC(=O)c1ccccc1Nc1cc(Nc2cc(C)nn2C(C)C)ncc1Cl [GSK2256098],IC50,0.0221 µM

# Source: PMC8459745 (Bioorganic & medicinal chemistry letters, 2021)
